Results from US5684222A (priority 1994, dated 1997).

Tested on: TNFRp55+/+ mice
Conditions: mouse, in vivo

N[C@H]1C(O)O[C@H](CO)[C@H](O)[C@@H]1O (stereo partly drawn) [D-Gal, D-galactosamine]
TNFRp55 +/+ dead/group: 0/4
